Laboratory results reported in US20240391862A1, “(1,4,5-TRISUBSTITUTED-1H-PYRAZOL-3-YL)OXY-2-ALKOXY ALKYL ACIDS AND THEIR DERIVATIVES, THEIR SALTS AND THEIR USE AS HERBICIDAL AGENTS” (Bayer AKtiengesellschaft, priority 2021, published 2024).

Columns and labels:
ALOMY = experiment: Post-emergence herbicidal effect, greenhouse pot test; format: in vivo, Alopecurus myosuroides; conditions: visual rating about 3 weeks after treatment; for Post-emergence effect against ALOMY: 320 g/ha
Procedure, shortened: (§1)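 Visual % activity scored roughly 3 weeks post-spray against untreated plants, where 100% means death and 0% equals control. Plants were treated at the one-leaf stage, 2 to 3 weeks after sowing in sandy loam, at 20 to 320 g/ha.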

DIGSA = experiment: as above; format: in vivo, Digitaria sanguinalis; conditions: 320 g/ha, visual rating about 3 weeks after treatment
Procedure, shortened: as §1

ABUTH = experiment: as above; format: in vivo, Abutilon theophrasti; conditions: visual rating about 3 weeks after treatment
Procedure, shortened: as §1

KCHSC = experiment: as above; format: in vivo
Procedure, shortened: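 Visual rating of activity against untreated plants (100% = plants died, 0% = no effect), done about 3 weeks after treatment. Compounds applied at 20–320 g/ha as aqueous spray (600 l/ha, 0.5% additive) from WP or EC formulations onto one-leaf-stage plants grown in sandy loam under greenhouse conditions.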

SETVI = experiment: as above; format: in vivo, Setaria viridis; conditions: 320 g/ha
Procedure, shortened: as §1

ECHCG = experiment: as above; format: in vivo, Echinochloa crus-galli
Procedure, shortened: as §1

ZEAMX = experiment: Post-emergence herbicidal effect and crop plant compatibility, greenhouse pot test; format: in vivo, Zea mays; conditions: one-leaf stage, rated visually after about 3 weeks vs untreated controls
Excerpt: • ALOMY: Alopecurus myosuroides SETVI: Setaria viridis • AVEFA: Avena fatua POLCO: Fallopia convolvulus • AMARE: Amaranthus retroflexus ECHCG: Echinochloa crus-galli • LOLRJ: Lolium rigidum STEME: Stellaria media • VERPE: Veronica persica MATIN: Tripleurospermum inodorum • DIGSA: Digitaria sanguinalis ABUTH: Abutylon threophrasti • TRZAS: Triticum aestivum VIOTR: Viola tricolor • BRSNW: Brassica napus ZEAMX: Zea mays • PHBPU: Ipomoea purpurea GLXMA: Glycine max • ORYSA: Oryza sativa HORMU: Hordeum murinum
Seeds of monocotyledonous and dicotyledonous weeds and crop plants are placed in sandy loam in plastic or organic planting pots, covered with soil and cultivated in a greenhouse under controlled growth conditions. 2 to 3 weeks after sowing, the trial plants are treated at the one-leaf stage. The compounds of the invention, formulated in the form of wettable powders (WP) or as emulsion concentrates (EC), are then sprayed onto the green parts of the plants as aqueous suspension or emulsion with addition of 0.5% additive at a water application rate of 600 l/ha (converted). After the test plants have been kept in the greenhouse under optimum growth conditions for about 3 weeks, the activity of the preparations is rated visually in comparison to untreated controls. For example, 100% activity=the plants have died, 0% activity=like control plants.
Tables 20a to 38c below show the effects/crop compatibilities of selected compounds of the general formula (I) on various harmful plants at an application rate corresponding to 20 to 320 g/ha, which were obtained by the trial procedure specified above.

VERPE = experiment: Post-emergence herbicidal effect, greenhouse pot test; format: in vivo, Veronica persica; conditions: for Post-emergence effect against VERPE in %: 320 g/ha
Procedure, shortened: as §1

LOLRI = experiment: as above; format: in vivo, Lolium rigidum
Procedure, shortened: as §1

PHBPU = experiment: as above; format: in vivo, Ipomoea purpurea
Procedure, shortened: as §1

POLCO = experiment: as above; format: in vivo, Fallopia convolvulus
Procedure, shortened: as §1

VIOTR = experiment: as above; format: in vivo, Viola tricolor
Procedure, shortened: as §1

AVEFA = experiment: as above; format: in vivo, Avena fatua; conditions: visual rating about 3 weeks after treatment
Procedure, shortened: as §1

MATIN = experiment: as above; format: in vivo, Tripleurospermum inodorum
Procedure, shortened: as §1

COC(=O)C(OC)Oc1nn(-c2ncccc2F)c(-c2ccc(F)nc2)c1C1CC1 (stereo not drawn) [Example I-108]
0%: Post-emergence effect at 20 g/ha against ZEAMX in % (ZEAMX) | Post-emergence effect at 80 g/ha against ZEAMX in % (ZEAMX) | plant injury at 320 g/ha (ZEAMX; Zea mays, 504 h, 320 g/ha, read-out: Post-emergence effect at 320 g/ha against ZEAMX in %)
100%: Post-emergence effect against ALOMY (ALOMY)
90%: pest or weed control at 80 g/ha (ALOMY; Alopecurus myosuroides, 504 h, 80 g/ha, read-out: Post-emergence effect against ALOMY) | Post-emergence effect against DIGSA (DIGSA) | Post-emergence effect against ABUTH (ABUTH; 320 g/ha) | Post-emergence effect against KCHSC in % (KCHSC; 320 g/ha) | pest or weed control at 80 g/ha (KCHSC; 504 h, 80 g/ha, read-out: Post-emergence effect against KCHSC in %) | Post-emergence effect against SETVI in % (SETVI) | Post-emergence effect against ECHCG in % (ECHCG; 80 g/ha) | Post-emergence effect against ECHCG in % (ECHCG; 320 g/ha) | Post-emergence effect against LOLRI in % (LOLRI; 320 g/ha) | Post-emergence effect against PHBPU in % (PHBPU; 320 g/ha) | Post-emergence effect against VIOTR in % (VIOTR; 80 g/ha) | Post-emergence effect against VIOTR in % (VIOTR; 320 g/ha) | Post-emergence effect against AVEFA (AVEFA; 80 g/ha) | Post-emergence effect against AVEFA (AVEFA; 320 g/ha)
80%: Post-emergence effect against ABUTH (ABUTH; 80 g/ha) | Post-emergence effect against VERPE in % (VERPE) | pest or weed control at 80 g/ha (VERPE; Veronica persica, 504 h, 80 g/ha, read-out: Post-emergence effect against VERPE in %) | Post-emergence effect against PHBPU in % (PHBPU; 80 g/ha) | Post-emergence effect against POLCO in % (POLCO; 320 g/ha)

COC(=O)CCOC(=O)C(OC)Oc1nn(-c2ncccc2F)c(-c2cncc(F)c2)c1C1CC1 (single isomer, unassigned) [Example I-77]
90%: Post-emergence effect against ALOMY (ALOMY) | Post-emergence effect against DIGSA (DIGSA) | Post-emergence effect against KCHSC in % (KCHSC; 80 g/ha) | Post-emergence effect against KCHSC in % (KCHSC; 320 g/ha) | Post-emergence effect against SETVI in % (SETVI) | Post-emergence effect against ECHCG in % (ECHCG; 80 g/ha) | Post-emergence effect against ECHCG in % (ECHCG; 320 g/ha) | Post-emergence effect against VERPE in % (VERPE) | Post-emergence effect against LOLRI in % (LOLRI; 80 g/ha) | Post-emergence effect against LOLRI in % (LOLRI; 320 g/ha) | Post-emergence effect against PHBPU in % (PHBPU; 80 g/ha) | Post-emergence effect against PHBPU in % (PHBPU; 320 g/ha) | Post-emergence effect against POLCO in % (POLCO; 80 g/ha) | Post-emergence effect against POLCO in % (POLCO; 320 g/ha) | Post-emergence effect against VIOTR in % (VIOTR; 80 g/ha) | Post-emergence effect against VIOTR in % (VIOTR; 320 g/ha) | Post-emergence effect against AVEFA (AVEFA; 80 g/ha) | Post-emergence effect against AVEFA (AVEFA; 320 g/ha)
80%: Post-emergence effect against MATIN in % (MATIN; 80 g/ha) | Post-emergence effect against MATIN in % (MATIN; 320 g/ha) | Post-emergence effect against ABUTH (ABUTH; 80 g/ha) | Post-emergence effect against ABUTH (ABUTH; 320 g/ha) | Post-emergence effect against KCHSC in % (KCHSC; 20 g/ha)
0%: Post-emergence effect at 20 g/ha against ZEAMX in % (ZEAMX) | Post-emergence effect at 80 g/ha against ZEAMX in % (ZEAMX)
